#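 Where inhibition never reached the appropriate level, the endpoint shown equals the highest concentration tested. Otherwise, values were interpolated linearly from a five-concentration, 48-hour dose response in 96-well plates. GI50 marks 50% less growth. TGI marks complete inhibition of growth.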
# Assays:
# Test in all cases: inhibition of tumour cell growth, NCI panel, 48 h
# SF-268 CNS = test system: SF-268 CNS
# U251 CNS = test system: U251 CNS
# MCF7 breast = test system: MCF7 breast
# K-562 leukemia = test system: K-562 leukemia
# SK-MEL-28 melanoma = test system: SK-MEL-28 melanoma
# A549 NSCLC = test system: A549 NSCLC
# HCT-116 colon = test system: HCT-116 colon
# SF-539 CNS = test system: SF-539 CNS
# NCI/ADR-RES ovarian = test system: NCI/ADR-RES ovarian
# COLO 205 colon = test system: COLO 205 colon
# HL-60(TB) leukemia = test system: HL-60(TB) leukemia
Structure (SMILES),TGI (SF-268 CNS) [µM],TGI (U251 CNS) [µM],TGI (MCF7 breast) [µM],TGI (K-562 leukemia) [µM],TGI (SK-MEL-28 melanoma) [µM],TGI (A549 NSCLC) [µM],TGI (HCT-116 colon) [µM],TGI (SF-539 CNS) [µM],TGI (NCI/ADR-RES ovarian) [µM],TGI (COLO 205 colon) [µM],TGI (HL-60(TB) leukemia) [µM],GI50 (SF-268 CNS) [nM],GI50 (MCF7 breast) [nM],GI50 (K-562 leukemia) [nM],GI50 (SK-MEL-28 melanoma) [nM],GI50 (SF-539 CNS) [nM],GI50 (NCI/ADR-RES ovarian) [nM],GI50 (COLO 205 colon) [nM],GI50 (HL-60(TB) leukemia) [nM]
CC[C@@H]1CC[C@@H]2[C@H](CC[C@]3(C)[C@@H](OC(C)=O)CC[C@@H]23)[C@H]1C(=O)OC,81.1,43.3,60.3,40.1,> 100,70.8,33.7,38.3,68.5,29.5,31.3,,,,,,,,
CC(Cc1cccc2c1Nc1ccccc1S2)N(C)CCO (stereo not given),> 100,> 100,> 100,> 100,> 100,> 100,> 100,> 100,> 100,> 100,> 100,,,,,,,,
COc1ccc2c(c1)-c1nc(=O)n(CCCN(C)C)c3ccc([N+](=O)[O-])c(c13)N2,17.8,9.03,18.2,0.235,4.3,17,12.8,9.63,10.4,18.4,4.39,,,,,,,,
O=C1CCSc2nc(-c3ccc4c(c3)OCO4)nn21,> 10,> 10,> 10,> 10,> 10,> 10,> 10,> 10,> 10,> 10,> 10,,,,,,,,
CCCn1c(=O)c2nn3c(=O)n(CCC)c(=O)c3nn2c1=O,> 100,> 100,> 100,> 100,> 100,> 100,> 100,> 100,> 100,> 100,> 100,,,,,,,,
Cc1ccc(S(=O)(=O)ON2C(=O)c3c(N)c(C#N)c(-c4ccccc4)c(-c4ccccc4)c3C2=O)cc1,> 100,30.6,37.4,> 100,29.4,43,33.1,58.2,62.4,33.1,11.7,,,,,,,,
C/C(=N\O)C1CC2C=C(C#N)C1N(Cc1ccccc1)C2 (stereo not given),> 100,> 100,> 100,> 100,> 100,> 100,> 100,> 100,> 100,> 100,> 100,,,,,,,,
O=C(NCCc1ccccc1)c1cc(/C=C/c2cc(O)ccc2O)ccc1O,10.2,5.28,9.42,7.49,10.4,> 41.1,4.19,5.94,> 34.2,17.6,9.65,,,,,,,,
C/C(=C\CNc1ncnc2c1ncn2CCC(=O)OC(C)(C)C)CO,> 100,,> 100,> 100,> 100,> 100,> 100,> 100,> 100,> 100,> 100,,,,,,,,
CCCCCCCC(CC(=O)NC(CO)C(=O)NC(CO)CC(C)C)OC(=O)CC(CCCCCCC)OC(=O)CC(CCCCCCC)OC1OC(C)C(O)C(OC2OC(C)C(O)C(O)C2O)C1O (stereo not given),23.2,24.7,> 52.3,25.7,21.2,31.7,20.8,24.7,33.7,22.8,10.5,,,,,,,,
CC(C)COP(C)(=O)C(N)(C(F)(F)F)C(F)(F)F (stereo not given),> 100,> 100,> 100,> 100,> 100,> 100,> 100,> 100,> 100,> 100,> 100,,,,,,,,
Cc1c(-c2nc(N)c(C#N)c(N)c2C#N)c(=O)oc2ccccc12,> 100,> 100,> 100,> 100,> 100,> 100,> 100,> 100,> 100,> 100,> 100,,,,,,,,
COC(=O)[C@]1(C)CCC[C@]2(C)[C@@H](CCC(=O)C(C)C)[C@]3(C=O)O[C@@H]3C[C@H]21,> 100,> 100,> 100,> 100,> 100,> 100,57.7,> 100,90.4,> 100,> 100,,,,,,,,
COc1cc(/C=C/C(=O)c2ccc(F)cc2)ccc1OCCCCCOc1cc2c(cc1OC)C(=O)N1CCCC1C=N2 (stereo not given),0.0613,,0.0395,,0.473,,,0.0301,2.47,0.043,,17.7,< 10,30.6,194,< 16.6,239,< 15.1,40.5
O=C(Oc1c(Br)cc(Br)cc1C(=O)Oc1ccccc1)C(=O)Oc1c(Br)cc(Br)cc1C(=O)Oc1ccccc1,> 100,40.6,60.8,55.7,> 100,73.8,31.6,51.8,> 100,51.8,> 100,,,,,,,,
Oc1c(Cl)c(Cl)c(O)c(CCNc2nccs2)c1Cl,36.1,66.1,10.2,> 100,67.9,49.8,23.6,4.14,50.5,57.9,> 100,,,,,,,,
C=C1CC(C)(COc2cc(=O)oc3ccccc23)OC1=O (stereo not given),40.5,28.9,4.28,6.45,10.8,28.2,9.64,12.6,24,5.81,4.83,,,,,,,,
CCN(CC)C(=S)N/N=C/c1cc(OC)ccc1O,11.3,> 100,9.84,> 100,> 100,> 100,> 100,36,40.4,> 100,7.44,,,,,,,,
